Structures can show the parent of a compound that is named as a salt. Where two headings read alike, the source gives them in different places.
Columns and labels:
[1] = biological target: His-GST-TVMV-hRIPK1(1-324) (Homo sapiens (Human), UniProt Q13546); test: RIPK1 HTRF Binding Assay; conditions: HTRF binding, 1 h at rt, read-out: RIPK1 (IC50)
Summary of the method: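 HTRF probe-displacement binding: 1 nM His-GST-TVMV-hRIPK1(1-324) (baculovirus construct), 90.6 nM probe, 0.2 nM anti-GST-Tb in 20 mM HEPES, 10 mM MgCl2, 0.015% Brij-35, 4 mM DTT, 0.05 mg/mL BSA. Incubated 1 h at rt; FRET 520/495 nm ratio, inhibition relative to DMSO-only wells.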

[2] = test system: MLKL phosphorylation in HT29-L23 human colorectal adenocarcinoma cells; test: MLKL Phosphorylation High-Content Assay; assay type: cell-based; conditions: 6 h, necroptosis induced with TNFα, SMAC mimetic and Z-VAD, read-out: pMLKL (IC50)
Summary of the method: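 HT29-L23 cells pretreated 30 min at 37 °C with compound (6.25 to 0.106 μM final), then necroptosis induced with TNFα 35 ng/mL, SMAC mimetic 700 nM and Z-VAD 140 nM for 6 h. Fixed cells immunostained for MLKL pS358 and imaged; IC50 and Ymax from 4-parameter logistic fit.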

Chain of His-GST-TVMV-hRIPK1(1-324) (Q13546 1-324): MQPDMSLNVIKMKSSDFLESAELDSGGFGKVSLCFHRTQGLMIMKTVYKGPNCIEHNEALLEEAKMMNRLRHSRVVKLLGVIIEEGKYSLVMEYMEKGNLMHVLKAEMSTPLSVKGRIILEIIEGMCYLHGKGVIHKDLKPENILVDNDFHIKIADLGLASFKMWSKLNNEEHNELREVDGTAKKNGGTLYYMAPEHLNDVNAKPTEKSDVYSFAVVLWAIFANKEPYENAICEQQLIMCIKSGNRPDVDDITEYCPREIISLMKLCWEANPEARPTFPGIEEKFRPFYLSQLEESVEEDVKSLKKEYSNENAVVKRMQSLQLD

## Cc1nc(C)c(-c2ccc3nc(NC(=O)CO)cn3n2)cc1C(=O)NCc1cc(C(F)(F)F)ccc1F [Example 94, N-{[2-fluoro-5-(trifluoromethyl)phenyl]methyl}-5-[2-(2-hydroxyacet-amido)imidazo[1,2-b]pyridazin-6-yl]-2,6-dimethylpyridine-3-carboxamide]
[1]
  IC50: 0.077 µM
[2]; Homo sapiens
  IC50: 0.087 µM

## [2H]C([2H])(NC(=O)c1cc(-c2ccc3nc(NC(C)=O)cn3n2)c(C)nc1C)c1cc(OC(F)(F)F)ccc1F [Example 76, 5-{2-acetamidoimidazo[1,2-b]pyridazin-6-yl}-N-{[2-fluoro-5-(trifluorometh-oxy)phenyl](deutero)methyl}-2,6-dimethylpyridine-3-carboxamide]
[1]
  IC50: 0.003 µM
[2]; Homo sapiens
  IC50: 0.008 µM

## [2H]C([2H])([2H])[C@@H](NC(=O)c1c(C)ccc(-c2ccc3nc(NC(C)=O)cn3n2)c1F)c1cc(OC(F)(F)F)ccc1F [Example 412, 3-{2-acetamidoimidazo [1,2-b]pyridazin-6-yl}-2-fluoro-N-[(1R)-1-[2-fluoro-5-(trifluoromethoxy)phenyl](2,2,2-Â^2Hâ,f)ethyl]-6-methylbenzamide]
[1]
  IC50: 0.004 µM
[2]; Homo sapiens
  IC50: 0.001 µM

## CC(=O)Nc1cn2nc(-c3ccc(C)c(C(=O)NCc4ccc(F)c(F)c4C(=O)N4CCC(F)(F)C4)c3F)ccc2n1 [Example 411, N-{[2-(3,3-difluoropyrrolidine-1-carbonyl)-3,4-difluorophenyl]methyl}-3-{2-acetamidoimidazo [1,2-b]pyridazin-6-yl}-2-fluoro-6-methylbenzamide]
[1]
  IC50: 0.009 µM
[2]; Homo sapiens
  IC50: 0.025 µM

## COc1ncc(-c2ccc3nc(NC(C)=O)cn3n2)cc1C(=O)NCc1cc(F)cc(F)c1OC1CCOCC1 [Example 129, N-{[3,5-difluoro-2-(oxan-4-yloxy)phenyl]methyl}-5-{2-acetamidoimidazo[1,2-b]pyridazin-6-yl}-2-methoxypyridine-3-carboxamide, TFA]
[1]
  IC50: 0.001 µM
[2]
  IC50: 0.002 µM

## COc1nc(C)c(-c2ccc3nc(NC(C)=O)cn3n2)cc1C(=O)NCCc1cccc(OC(F)(F)F)c1 [Example 304, 5-{2-acetamidoimidazo[1,2-b]pyridazin-6-yl}-2-methoxy-6-methyl-N-{2-[3-(trifluoromethoxy)phenyl]ethyl}pyridine-3-carboxamide]
[1]
  IC50: 0.206 µM
[2]; Homo sapiens
  IC50: 0.067 µM

## COc1ncc(-c2ccc3nc(NC(C)=O)cn3n2)cc1C(=O)N[C@H](C)c1cc(C(F)(F)F)ccc1F [Example 107, 5-{2-acetamidoimidazo[1,2-b]pyridazin-6-yl}-N-[(1R)-1-[2-fluoro-5-(trifluoromethyl)phenyl](2,2,2-deutero)ethyl]-2-methoxypyridine-3-carboxamide]
[1]
  IC50: 0.193 µM
[2]
  IC50: 0.306 µM

## CC(=O)Nc1cn2nc(-c3cc(C(=O)NCc4ncccc4OCC(F)(F)F)c(C)nc3C)ccc2n1 [Example 65, 5-{2-acetamidoimidazo[1,2-b]pyridazin-6-yl}-2,6-dimethyl-N-{[3-(2,2,2-trifluoroethoxy)pyridin-2-yl]methyl}pyridine-3-carboxamide]
[1]
  IC50: 0.044 µM
[2]; Homo sapiens
  IC50: 0.374 µM

## [2H]C([2H])([2H])Oc1ncc(-c2ccc3nc(NC(C)=O)cn3n2)cc1C(=O)NCc1cc(OC(F)(F)F)ccc1F [Example 58, 5-{2-acetamidoimidazo[1,2-b]pyridazin-6-yl}-N-{[2-fluoro-5-(trifluoromethoxy)phenyl]methyl}-2-(D3)methoxypyridine-3-carboxamide]
[1]
  IC50: 0.014 µM
[2]; Homo sapiens
  IC50: 0.021 µM

## CC(=O)Nc1cn2nc(-c3cc(C(=O)NCC[C@H](O)c4ccc(Cl)cc4)c(C)cc3C)ccc2n1 [Example 383, N-[(3S)-3-(4-chlorophenyl)-3-hydroxypropyl]-5-{2-acetamidoimidazo [1,2-b]pyridazin-6-yl}-2,4-dimethylbenzamide]
[1]
  IC50: 0.003 µM
[2]; Homo sapiens
  IC50: 0.003 µM

## [2H]C([2H])([2H])Oc1nc(C)c(-c2ccc3nc(NC(C)=O)cn3n2)cc1C(=O)NCc1ccccc1OC(F)(F)F [Example 178, 5-{2-acetamidoimidazo[1,2-b]pyridazin-6-yl}-2-(deutero) methoxy-6-methyl-N-{[2-(trifluoromethoxy)phenyl]methyl} pyridine-3-carboxamide]
[1]
  IC50: 0.004 µM
[2]; Homo sapiens
  IC50: 0.02 µM

## COc1ncc(-c2ccc3nc(NC(C)=O)cn3n2)cc1C(=O)NC(C)c1c(F)cccc1OCC1CC1 (centres unmarked) [Example 124, N-{1-[2-(cyclopropylmethoxy)-6-fluorophenyl]ethyl}-5-{2-acetamidoimidazo[1,2-b]pyridazin-6-yl}-2-methoxypyridine-3-carboxamide, TFA]
[1]; TFA
  IC50: 0.006 µM
[2]; TFA
  IC50: 0.014 µM

## CC(=O)Nc1cn2nc(-c3cnc(C)c(C(=O)NCc4ccccc4OC(F)(F)F)c3)ccc2n1 [Example 220, 5-{2-acetamidoimidazo[1,2-b]pyridazin-6-yl}-2-methyl-N-{[2-(trifluoromethoxy)phenyl]methyl}pyridine-3-carboxamide]
[1]
  IC50: 0.202 µM
[2]; Homo sapiens
  IC50: 0.406 µM

## Cc1nc(C)c(-c2ccc3nc(NC(=O)CO)cn3n2)cc1C(=O)N[C@H](C)c1cc(C(F)(F)F)ccc1F [Example 92, N-[(1R)-1-[2-fluoro-5-(trifluoromethyl)phenyl]ethyl]-5-[2-(2-hydroxyacet-amido)imidazo[1,2-b]pyridazin-6-yl]-2,6-dimethylpyridine-3-carboxamide]
[1]
  IC50: 0.048 µM
[2]; Homo sapiens
  IC50: 0.127 µM

## COc1ncc(-c2ccc3nc(NC(=O)CO)cn3n2)cc1C(=O)NCc1cc(OC(F)(F)F)ccc1F [Example 35, N-{[2-fluoro-5-(trifluoromethoxy)phenyl]methyl}-5-[2-(2-hydroxyacetamido)imidazo[1,2-b]pyridazin-6-yl]-2-methoxypyridine-3-carboxamide]
[1]
  IC50: 0.025 µM
[2]; Homo sapiens
  IC50: 0.13 µM

## COc1ncc(-c2ccc3nc(NC(C)=O)cn3n2)cc1C(=O)NCc1ccccc1OC(F)(F)F [Example 157, 5-{2-acetamidoimidazo[1,2-b]pyridazin-6-yl}-2-methoxy-N-{[2-(trifluoro-methoxy)phenyl]methyl}pyridine-3-carboxamide]
[1]
  IC50: 0.017 µM
[2]; Homo sapiens
  IC50: 0.093 µM

## COc1nc(C)c(-c2ccc3nc(NC(C)=O)cn3n2)cc1C(=O)NC(C)c1ccccc1OC(F)(F)F (centres unmarked) [Example 290, 5-{2-acetamidoimidazo[1,2-b]pyridazin-6-yl}-2-methoxy-6-methyl-N-{1-[2-(trifluoromethoxy)phenyl]ethyl}pyridine-3-carboxamide]
[1]
  IC50: 0.007 µM
[2]
  IC50: 0.003 µM

## Cc1ncc(-c2ccc3nc(NC(=O)CO)cn3n2)cc1C(=O)NCc1cc(OC(F)(F)F)ccc1F [Example 39, N-{[2-fluoro-5-(trifluoromethoxy)phenyl]methyl}-5-[2-(2-hydroxyacetamido)imidazo[1,2-b]pyridazin-6-yl]-2-methylpyridine-3-carboxamide]
[1]
  IC50: 0.055 µM
[2]; Homo sapiens
  IC50: 0.119 µM

## CC(=O)Nc1cn2nc(-c3ccc(C)c(C(=O)NC[C@H]4C[C@@H]4c4ccc(F)cc4)c3)ccc2n1 [Example 401, 5-{2-acetamidoimidazo [1,2-b]pyridazin-6-yl}-N-{[(1S, 2S)-2-(4-fluorophenyl)cyclopropyl]methyl}-2-methylbenzamide]
[1]
  IC50: 0.105 µM
[2]; Homo sapiens
  IC50: 0.077 µM

## [2H]C([2H])(NC(=O)c1cnc(C)c(-c2ccc3nc(NC(C)=O)cn3n2)c1)c1cc(OC(F)(F)F)ccc1F [Example 230, 5-{2-acetamidoimidazo[1,2-b]pyridazin-6-yl}-N-{[2-fluoro-5-(trifluoromethoxy)phenyl](deutero)methy 1}-6-methylpyridine-3-carboxamide]
[1]
  IC50: 0.019 µM
[2]; Homo sapiens
  IC50: 0.09 µM

## COc1ncc(-c2ccc3nc(NC(C)=O)cn3n2)cc1C(=O)NCc1cc(F)cc(F)c1OC1CCOC(C)C1 (centres unmarked) [Example 96, N-({3,5-difluoro-2-[(2-methyloxan-4-yl)oxy]phenyl}methyl)-5-{2-acetamidoimidazo[1,2-b]pyridazin-6-yl}-2-methoxypyridine-3-carboxamide]
[1]
  IC50: 0.01 µM
[2]; Homo sapiens
  IC50: 0.025 µM

## CCC(=O)Nc1cn2nc(-c3cnc(OC)c(C(=O)NCc4ccccc4OC(F)(F)F)c3)ccc2n1 [Example 248, 2-methoxy-5-{2-propanamidoimidazo[1,2-b]pyridazin-6-yl}-N-{[2-(trifluoromethoxy)phenyl]methyl}pyridine-3-carboxamide, TFA]
[1]
  IC50: 0.013 µM
[2]; Homo sapiens
  IC50: 0.055 µM

## [2H]C([2H])([2H])Oc1ncc(-c2ccc3nc(NC(C)=O)cn3n2)cc1C(=O)NC(C)c1ccccc1OC(F)(F)F (centres unmarked) [Example 54, 5-{2-acetamidoimidazo[1,2-b]pyridazin-6-yl}-2-(D3)methoxy-N-{1-[2-(trifluoromethoxy)phenyl]eth-yl}pyridine-3-carboxamide]
[1]
  IC50: 0.005 µM
[2]; Homo sapiens
  IC50: 0.024 µM

## COc1cc(C)c(-c2ccc3nc(NC(C)=O)cn3n2)cc1C(=O)NCc1cc(OC(F)(F)F)ccc1F [Example 421, 5-{2-acetamidoimidazo [1,2-b]pyridazin-6-yl}-N-{[2-fluoro-5-(trifluoromethoxy)phenyl]methyl}-2-methoxy-4-methylbenzamide]
[1]
  IC50: 0.002 µM
[2]; Homo sapiens
  IC50: 0.01 µM

## [2H]C([2H])(NC(=O)c1cc(-c2ccc3nc(NC(=O)CC)cn3n2)cnc1OC)c1cc(OC(F)(F)F)ccc1F [Example 244, N-{[2-fluoro-5-(trifluoromethoxy)phenyl](deutero)methyl}-2-methoxy-5-{2-propanamidoimidazo[1,2-b]pyridazin-6-yl}pyridine-3-carboxamide]
[1]
  IC50: 0.257 µM
[2]; Homo sapiens
  IC50: 0.004 µM
